Measurements as given in the supplement of paper PMC6045584.
± gives the standard deviation of the averaged measurements.

Key:
[1] = compound: COc1ccc(-c2cc3c(C)nc(N)nc3n([C@H]3CC[C@H](OCCO)CC3)c2=O)cn1; assay: surviving fraction relative to DMSO-only wells; higher = less growth inhibition; conditions: exposure time: 5 days
Summary of the method: (§1)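 Viability values are CellTiter-Glo luminescence readings, given as surviving fraction against the median of DMSO-only wells. The readings were taken after 10 minutes at room temperature, following five days of continuous exposure to inhibitors at 0.5, 1, 5, 10, 50, 100, 500 and 1000 nM that began 24 hours after log-phase tumour cell lines were seeded at 250–500 cells per well in 384-well plates. Every line was screened three times and kept only if replicate Pearson r >0.7 and median Z' >0.3.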

VORINOSTAT = compound: O=C(CCCCCCC(=O)Nc1ccccc1)NO [VORINOSTAT]; assay: as above; conditions: exposure time: 5 days
Summary of the method: as §1

Work on 22RV1 PROSTATE yielded a surviving fraction ([1]; 0.5 nM) of 1.03 ± 0.041, a surviving fraction ([1]; 1 nM) of 0.999 ± 0.072 and a surviving fraction ([1]; 5 nM) of 0.876 ± 0.085. For the same test system, the surviving fraction ([1]; 10 nM) was 0.796 ± 0.021, the surviving fraction ([1]; 50 nM) was 0.516 ± 0.065 and the surviving fraction ([1]; 100 nM) was 0.312 ± 0.043. The surviving fraction ([1]; 500 nM) was 0.106 ± 0.019, the surviving fraction ([1]; 1000 nM) was 0.0857 ± 0.0063 and the surviving fraction (VORINOSTAT; 0.5 nM) was 0.946 ± 0.09. It also gave a surviving fraction (VORINOSTAT; 1 nM) of 1.02 ± 0.026, a surviving fraction (VORINOSTAT; 5 nM) of 0.987 ± 0.054 and a surviving fraction (VORINOSTAT; 10 nM) of 0.994 ± 0.034. For the same test system, the surviving fraction (VORINOSTAT; 50 nM) was 1.09 ± 0.046, the surviving fraction (VORINOSTAT; 100 nM) was 1.03 ± 0.058 and the surviving fraction (VORINOSTAT; 500 nM) was 1.03 ± 0.051. It also gave a surviving fraction (VORINOSTAT; 1000 nM) of 0.726 ± 0.071.

In the case of 93VU HEADNECK, the surviving fraction ([1]; 0.5 nM) is reported as 0.94 ± 0.015, the surviving fraction ([1]; 1 nM) is reported as 0.995 ± 0.14 and the surviving fraction ([1]; 5 nM) is reported as 0.923 ± 0.075. For the same test system, the surviving fraction ([1]; 10 nM) was 0.979 ± 0.044, the surviving fraction ([1]; 50 nM) was 0.582 ± 0.14 and the surviving fraction ([1]; 100 nM) was 0.351 ± 0.068. The surviving fraction ([1]; 500 nM) was 0.0697 ± 0.0051, the surviving fraction ([1]; 1000 nM) was 0.047 ± 0.0046 and the surviving fraction (VORINOSTAT; 0.5 nM) was 0.966 ± 0.02. The surviving fraction (VORINOSTAT; 1 nM) was 1.06 ± 0.045, the surviving fraction (VORINOSTAT; 5 nM) was 1.09 ± 0.087 and the surviving fraction (VORINOSTAT; 10 nM) was 1.08 ± 0.077. The surviving fraction (VORINOSTAT; 50 nM) was 1.18 ± 0.093, the surviving fraction (VORINOSTAT; 100 nM) was 1.1 ± 0.07 and the surviving fraction (VORINOSTAT; 500 nM) was 0.947 ± 0.035. For the same test system, the surviving fraction (VORINOSTAT; 1000 nM) was 0.731 ± 0.13.

143B BONE was tested, and the surviving fraction ([1]; 0.5 nM) was 0.995 ± 0.0057, the surviving fraction ([1]; 1 nM) was 0.992 ± 0.014 and the surviving fraction ([1]; 5 nM) was 1.01 ± 0.039. For the same test system, the surviving fraction ([1]; 10 nM) was 0.966 ± 0.025, the surviving fraction ([1]; 50 nM) was 0.946 ± 0.011 and the surviving fraction ([1]; 100 nM) was 0.896 ± 0.02. It also gave a surviving fraction ([1]; 500 nM) of 0.391 ± 0.016, a surviving fraction ([1]; 1000 nM) of 0.267 ± 0.013 and a surviving fraction (VORINOSTAT; 0.5 nM) of 1.01 ± 0.0028. It also gave a surviving fraction (VORINOSTAT; 1 nM) of 1.02 ± 0.011, a surviving fraction (VORINOSTAT; 5 nM) of 1.053 ± 0.0014 and a surviving fraction (VORINOSTAT; 10 nM) of 1.01 ± 0.031. The surviving fraction (VORINOSTAT; 50 nM) was 1.01 ± 0.03, the surviving fraction (VORINOSTAT; 100 nM) was 1.02 ± 0.042 and the surviving fraction (VORINOSTAT; 500 nM) was 0.858 ± 0.11. It also gave a surviving fraction (VORINOSTAT; 1000 nM) of 0.835 ± 0.026.

A549 LUNG showed a surviving fraction ([1]; 0.5 nM) of 0.958 ± 0.049, a surviving fraction ([1]; 1 nM) of 0.939 ± 0.044 and a surviving fraction ([1]; 5 nM) of 0.927 ± 0.026. The surviving fraction ([1]; 10 nM) was 0.936 ± 0.035, the surviving fraction ([1]; 50 nM) was 1.02 ± 0.032 and the surviving fraction ([1]; 100 nM) was 0.886 ± 0.016. It also gave a surviving fraction ([1]; 500 nM) of 0.325 ± 0.024, a surviving fraction ([1]; 1000 nM) of 0.158 ± 0.0036 and a surviving fraction (VORINOSTAT; 0.5 nM) of 0.961 ± 0.026. For the same test system, the surviving fraction (VORINOSTAT; 1 nM) was 0.9313 ± 0.009, the surviving fraction (VORINOSTAT; 5 nM) was 0.923 ± 0.062 and the surviving fraction (VORINOSTAT; 10 nM) was 0.919 ± 0.042. The surviving fraction (VORINOSTAT; 50 nM) was 1.04 ± 0.019, the surviving fraction (VORINOSTAT; 100 nM) was 1.02 ± 0.061 and the surviving fraction (VORINOSTAT; 500 nM) was 1.18 ± 0.027. For the same test system, the surviving fraction (VORINOSTAT; 1000 nM) was 1.116 ± 0.006.

Work on ASKA SYNOVIAL yielded a surviving fraction ([1]; 0.5 nM) of 0.923 ± 0.037, a surviving fraction ([1]; 1 nM) of 0.896 ± 0.064 and a surviving fraction ([1]; 5 nM) of 0.878 ± 0.076. The surviving fraction ([1]; 10 nM) was 0.776 ± 0.054, the surviving fraction ([1]; 50 nM) was 0.462 ± 0.019 and the surviving fraction ([1]; 100 nM) was 0.366 ± 0.025. The surviving fraction ([1]; 500 nM) was 0.187 ± 0.011, the surviving fraction ([1]; 1000 nM) was 0.229 ± 0.026 and the surviving fraction (VORINOSTAT; 0.5 nM) was 1.01 ± 0.033. For the same test system, the surviving fraction (VORINOSTAT; 1 nM) was 1.03 ± 0.038, the surviving fraction (VORINOSTAT; 5 nM) was 1.08 ± 0.045 and the surviving fraction (VORINOSTAT; 10 nM) was 0.951 ± 0.022. For the same test system, the surviving fraction (VORINOSTAT; 50 nM) was 1.05 ± 0.015, the surviving fraction (VORINOSTAT; 100 nM) was 1.01 ± 0.018 and the surviving fraction (VORINOSTAT; 500 nM) was 0.724 ± 0.024. For the same test system, the surviving fraction (VORINOSTAT; 1000 nM) was 0.525 ± 0.028.

With BT20 BREAST the surviving fraction ([1]; 0.5 nM) was 1.13 ± 0.1, the surviving fraction ([1]; 1 nM) was 1.11 ± 0.097 and the surviving fraction ([1]; 5 nM) was 1.12 ± 0.019. It also gave a surviving fraction ([1]; 10 nM) of 1.09 ± 0.063, a surviving fraction ([1]; 50 nM) of 1 ± 0.048 and a surviving fraction ([1]; 100 nM) of 0.72 ± 0.037. For the same test system, the surviving fraction ([1]; 500 nM) was 0.216 ± 0.004, the surviving fraction ([1]; 1000 nM) was 0.141 ± 0.021 and the surviving fraction (VORINOSTAT; 0.5 nM) was 1.05 ± 0.17. For the same test system, the surviving fraction (VORINOSTAT; 1 nM) was 1.09 ± 0.21, the surviving fraction (VORINOSTAT; 5 nM) was 1.06 ± 0.17 and the surviving fraction (VORINOSTAT; 10 nM) was 1.05 ± 0.2. The surviving fraction (VORINOSTAT; 50 nM) was 0.941 ± 0.21, the surviving fraction (VORINOSTAT; 100 nM) was 0.943 ± 0.22 and the surviving fraction (VORINOSTAT; 500 nM) was 0.872 ± 0.19. It also gave a surviving fraction (VORINOSTAT; 1000 nM) of 0.491 ± 0.12.

BT549 BREAST was tested, and the surviving fraction ([1]; 0.5 nM) was 1.09 ± 0.18, the surviving fraction ([1]; 1 nM) was 1.02 ± 0.12 and the surviving fraction ([1]; 5 nM) was 0.952 ± 0.095. It also gave a surviving fraction ([1]; 10 nM) of 0.939 ± 0.14, a surviving fraction ([1]; 50 nM) of 0.569 ± 0.085 and a surviving fraction ([1]; 100 nM) of 0.381 ± 0.035. For the same test system, the surviving fraction ([1]; 500 nM) was 0.12 ± 0.013, the surviving fraction ([1]; 1000 nM) was 0.0733 ± 0.0021 and the surviving fraction (VORINOSTAT; 0.5 nM) was 1.12 ± 0.083. It also gave a surviving fraction (VORINOSTAT; 1 nM) of 1.14 ± 0.11, a surviving fraction (VORINOSTAT; 5 nM) of 1.15 ± 0.029 and a surviving fraction (VORINOSTAT; 10 nM) of 1.22 ± 0.051. It also gave a surviving fraction (VORINOSTAT; 50 nM) of 1.12 ± 0.17, a surviving fraction (VORINOSTAT; 100 nM) of 1.11 ± 0.068 and a surviving fraction (VORINOSTAT; 500 nM) of 0.773 ± 0.073. The surviving fraction (VORINOSTAT; 1000 nM) was 0.534 ± 0.034.

For C33A CERVIX, the surviving fraction ([1]; 0.5 nM) was 0.778 ± 0.031, the surviving fraction ([1]; 1 nM) was 0.943 ± 0.09 and the surviving fraction ([1]; 5 nM) was 0.789 ± 0.075. It also gave a surviving fraction ([1]; 10 nM) of 0.923 ± 0.073, a surviving fraction ([1]; 50 nM) of 0.614 ± 0.043 and a surviving fraction ([1]; 100 nM) of 0.482 ± 0.012. For the same test system, the surviving fraction ([1]; 500 nM) was 0.156 ± 0.024, the surviving fraction ([1]; 1000 nM) was 0.101 ± 0.018 and the surviving fraction (VORINOSTAT; 0.5 nM) was 0.86 ± 0.078. It also gave a surviving fraction (VORINOSTAT; 1 nM) of 0.952 ± 0.064, a surviving fraction (VORINOSTAT; 5 nM) of 1.04 ± 0.031 and a surviving fraction (VORINOSTAT; 10 nM) of 1.05 ± 0.098. For the same test system, the surviving fraction (VORINOSTAT; 50 nM) was 1.04 ± 0.15, the surviving fraction (VORINOSTAT; 100 nM) was 1.05 ± 0.096 and the surviving fraction (VORINOSTAT; 500 nM) was 0.805 ± 0.014. The surviving fraction (VORINOSTAT; 1000 nM) was 0.615 ± 0.048.

CADOES1 SOFT TISSUE gave a surviving fraction ([1]; 0.5 nM) of 0.956 ± 0.11, a surviving fraction ([1]; 1 nM) of 0.921 ± 0.061 and a surviving fraction ([1]; 5 nM) of 0.911 ± 0.058. The surviving fraction ([1]; 10 nM) was 0.781 ± 0.045, the surviving fraction ([1]; 50 nM) was 0.633 ± 0.11 and the surviving fraction ([1]; 100 nM) was 0.49 ± 0.025. For the same test system, the surviving fraction ([1]; 500 nM) was 0.193 ± 0.033, the surviving fraction ([1]; 1000 nM) was 0.12 ± 0.0096 and the surviving fraction (VORINOSTAT; 0.5 nM) was 0.968 ± 0.063. It also gave a surviving fraction (VORINOSTAT; 1 nM) of 0.916 ± 0.028, a surviving fraction (VORINOSTAT; 5 nM) of 0.865 ± 0.096 and a surviving fraction (VORINOSTAT; 10 nM) of 0.824 ± 0.057. The surviving fraction (VORINOSTAT; 50 nM) was 0.71 ± 0.23, the surviving fraction (VORINOSTAT; 100 nM) was 0.397 ± 0.23 and the surviving fraction (VORINOSTAT; 500 nM) was 0.242 ± 0.057. The surviving fraction (VORINOSTAT; 1000 nM) was 0.0883 ± 0.016.

Work on CAL51 BREAST yielded a surviving fraction ([1]; 0.5 nM) of 0.988 ± 0.062, a surviving fraction ([1]; 1 nM) of 0.901 ± 0.047 and a surviving fraction ([1]; 5 nM) of 0.943 ± 0.064. For the same test system, the surviving fraction ([1]; 10 nM) was 0.91 ± 0.053, the surviving fraction ([1]; 50 nM) was 0.731 ± 0.023 and the surviving fraction ([1]; 100 nM) was 0.442 ± 0.035. It also gave a surviving fraction ([1]; 500 nM) of 0.123 ± 0.0027, a surviving fraction ([1]; 1000 nM) of 0.0447 ± 0.0022 and a surviving fraction (VORINOSTAT; 0.5 nM) of 0.956 ± 0.013. It also gave a surviving fraction (VORINOSTAT; 1 nM) of 0.951 ± 0.056, a surviving fraction (VORINOSTAT; 5 nM) of 1.02 ± 0.011 and a surviving fraction (VORINOSTAT; 10 nM) of 0.906 ± 0.021. The surviving fraction (VORINOSTAT; 50 nM) was 1.02 ± 0.024, the surviving fraction (VORINOSTAT; 100 nM) was 0.97 ± 0.078 and the surviving fraction (VORINOSTAT; 500 nM) was 0.65 ± 0.022. It also gave a surviving fraction (VORINOSTAT; 1000 nM) of 0.403 ± 0.01.
